Patent US20250250230A1, “HETEROCYCLIC COMPOUND” (TAKEDA PHARMACEUTICAL COMPANY LIMITED, priority 2022, published 2025)

target: T1, human orexin type 2 receptor (Homo sapiens, UniProt O43614); experiment: Measurement of orexin type 2 receptor agonist activity (calcium fluorescence, Fluo-4 AM, FDSS); format: cell-based; details: test compound 3 μM; CHO cells expressing human OX2 receptor; DMSO = 0%, orexin A (human) = 100%
T1 construct: expressed in transfected cells
T1 sequence (O43614 1-444): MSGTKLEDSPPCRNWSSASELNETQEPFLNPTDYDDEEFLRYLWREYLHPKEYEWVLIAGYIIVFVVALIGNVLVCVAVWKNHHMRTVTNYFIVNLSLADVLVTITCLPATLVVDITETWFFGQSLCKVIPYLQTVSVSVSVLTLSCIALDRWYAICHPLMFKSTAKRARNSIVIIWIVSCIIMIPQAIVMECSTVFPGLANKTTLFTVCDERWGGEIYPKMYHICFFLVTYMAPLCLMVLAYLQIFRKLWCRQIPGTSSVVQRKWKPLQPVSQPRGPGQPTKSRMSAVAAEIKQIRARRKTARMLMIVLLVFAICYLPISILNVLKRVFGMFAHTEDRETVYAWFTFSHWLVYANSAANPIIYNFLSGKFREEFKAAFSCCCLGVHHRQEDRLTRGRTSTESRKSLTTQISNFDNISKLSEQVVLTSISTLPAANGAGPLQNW
Excerpt: To obtain a cell clone stably expressing human orexin type 2 receptor, human orexin type 2 receptor cDNA was inserted into pcDNA3.1(+) plasmid vector (Invitrogen), and a plasmid DNA for expression of human orexin type 2 receptor (pcDNA3.1(+)/hOX2R) was cloned. The plasmid DNA was introduced into CHO-K1 cell by an electroporation method, and human orexin type 2 receptor expressing clone cells were obtained by limiting dilution method by using G418 drug resistance as a selection marker.
CHO cells forcibly expressing human OX2 receptor were seeded in each well of 384 well black transparent bottom plate (BD Falcon) at 10,000 cells/well, and cultured for one day in a 5% CO2 incubator at 37° C. After removal of the medium in the cell plate, assay buffer A containing a calcium indicator (HBSS (Thermo Fisher Scientific), 20 mM HEPES (Thermo Fisher Scientific), 0.1% BSA (Sigma-Aldrich), 2.5 μg/mL Fluo-4 AM (DOJINDO Chemical), 0.08% Pluronic F127 (DOJINDO Chemical), 1.25 mM probenecid (DOJINDO Chemical)) was added at 30 μL/well. The plate was stood for 30 min in a 5% CO2 incubator at 37° C., and further stood at room temperature for 30 min. A test compound prepared by diluting with assay buffer B (HBSS, 20 mM HEPES, 0.1% BSA) was added at 10 μL/well, and the fluorescence value was measured by FDSSμCELL (Hamamatsu Photonics K.K.) every one sec for 1 min, and thereafter every two sec for […]. The activity (%) of the test compound was calculated assuming that variation in the fluorescence value when DMSO was added instead of the test compound was 0%, and variation in the fluorescence value when orexin A (human) (PEPTIDE INSTITUTE, INC.) was added at the final concentration of 10 nM was 100%.

SMILES | OX2R agonist activity (3 μM, %) [%]
CC1(C)C(C(=O)N2CC[C@H](NS(C)(=O)=O)C2)C1c1ccccc1-c1c(F)cccc1F (mixture of isomers) [Example 287, a mixture of N-{(3S)-1-[(1R,2R)-2-(2′,6′-difluoro[1,1′-biphenyl]-2-yl)-2,2-dimethylcyclopropane-1-carbonyl]pyrrolidin-3-yl}methanesulfonamide and N-{(3S)-1-[(1S,3S)-3-(2′,6′-difluoro[1,1′-biphenyl]-2-yl)-2,2-dimethylcyclopropane-1-carbonyl]pyrrolidin-3-yl}methanesulfonamide] | 96
CC1(C)C(C(=O)N2CCC[C@H](NS(C)(=O)=O)CC2)C1c1ccccc1-c1c(F)cccc1F (mixture of isomers) [Example 288, a mixture of N-{(4S)-1-[(1R,2R)-2-(2′,6′-difluoro[1,1′-biphenyl]-2-yl)-2,2-dimethylcyclopropane-1-carbonyl]azepan-4-yl}methanesulfonamide and N-{(4S)-1-[(1S,3S)-3-(2′,6′-difluoro[1,1′-biphenyl]-2-yl)-2,2-dimethylcyclopropane-1-carbonyl]azepan-4-yl}methanesulfonamide] | 96
CS(=O)(=O)N[C@H]1CCCN(C(=O)C2CC2(F)c2ccccc2-c2c(F)cccc2F)CC1 (mixture of isomers) [Example 290, a mixture of N-{(4S)-1-[(1R,2R)-2-(2′,6′-difluoro[1,1′-biphenyl]-2-yl)-2-fluorocyclopropane-1-carbonyl]azepan-4-yl}methanesulfonamide and N-{(4S)-1-[(1S,2S)-2-(2′,6′-difluoro[1,1′-biphenyl]-2-yl)-2-fluorocyclopropane-1-carbonyl]azepan-4-yl}methanesulfonamide] | 98
CS(=O)(=O)N[C@H]1CCCCN(C(=O)C2CC2(F)c2ccccc2-c2c(F)cccc2F)C1 (mixture of isomers) [Example 291, a mixture of N-{(3S)-1-[(1R,2R)-2-(2′,6′-difluoro[1,1′-biphenyl]-2-yl)-2-fluorocyclopropane-1-carbonyl]azepan-3-yl}methanesulfonamide and N-{(3S)-1-[(1S,2S)-2-(2′,6′-difluoro[1,1′-biphenyl]-2-yl)-2-fluorocyclopropane-1-carbonyl]azepan-3-yl}methanesulfonamide] | 93
CC1C(C(=O)N2CC[C@H](NS(C)(=O)=O)C2)C1c1ccccc1-c1c(F)cccc1F (mixture of isomers) [Example 303, a mixture of N-{(3S)-1-[(1R,2R,3S)-2-(2′,6′-difluoro[1,1′-biphenyl]-2-yl)-3-methylcyclopropane-1-carbonyl]pyrrolidin-3-yl}methanesulfonamide and N-{(3S)-1-[(1S,2S,3R)-2-(2′,6′-difluoro[1,1′-biphenyl]-2-yl)-3-methylcyclopropane-1-carbonyl]pyrrolidin-3-yl}methanesulfonamide] | 99
CC1C(C(=O)N2CCC[C@H](NS(C)(=O)=O)C2)C1c1ccccc1-c1c(F)cccc1F (mixture of isomers) [Example 305, a mixture of N-{(3S)-1-[(1R,2R,3S)-2-(2′,6′-difluoro[1,1′-biphenyl]-2-yl)-3-methylcyclopropane-1-carbonyl]piperidin-3-yl}methanesulfonamide and N-{(3S)-1-[(1S,2S,3R)-2-(2′,6′-difluoro[1,1′-biphenyl]-2-yl)-3-methylcyclopropane-1-carbonyl]piperidin-3-yl}methanesulfonamide] | 85
CC1C(C(=O)N2CCC[C@H](NS(C)(=O)=O)CC2)C1c1ccccc1-c1c(F)cccc1F (mixture of isomers) [Example 308, a mixture of N-{(4S)-1-[(1R,2R,3S)-2-(2′,6′-difluoro[1,1′-biphenyl]-2-yl)-3-methylcyclopropane-1-carbonyl]azepan-4-yl}methanesulfonamide and N-{(4S)-1-[(1S,2S,3R)-2-(2′,6′-difluoro[1,1′-biphenyl]-2-yl)-3-methylcyclopropane-1-carbonyl]azepan-4-yl}methanesulfonamide] | 100
CC1(NS(C)(=O)=O)CCCN(C(=O)[C@@H]2C[C@H]2c2ccccc2-c2c(F)cccc2F)C1 (mixture of isomers) [Example 310, a mixture of N-{(3R)-1-[(1R,2R)-2-(2′,6′-difluoro[1,1′-biphenyl]-2-yl)cyclopropane-1-carbonyl]-3-methylpiperidin-3-yl}methanesulfonamide and N-{(3S)-1-[(1R,2R)-2-(2′,6′-difluoro[1,1′-biphenyl]-2-yl)cyclopropane-1-carbonyl]-3-methylpiperidin-3-yl}methanesulfonamide] | 100
CC1C(C(=O)N2CCCC[C@H](NS(C)(=O)=O)C2)C1c1ccccc1-c1c(F)cccc1F (mixture of isomers) [Example 311, a mixture of N-{(3S)-1-[(1R,2R,3S)-2-(2′,6′-difluoro[1,1′-biphenyl]-2-yl)-3-methylcyclopropane-1-carbonyl]azepan-3-yl}methanesulfonamide and N-{(3S)-1-[(1S,2S,3R)-2-(2′,6′-difluoro[1,1′-biphenyl]-2-yl)-3-methylcyclopropane-1-carbonyl]azepan-3-yl}methanesulfonamide] | 98
CC1(NS(C)(=O)=O)CCCN(C(=O)[C@@H]2C[C@H]2c2ccccc2-c2c(F)cccc2F)CC1 (mixture of isomers) [Example 313, a mixture of N-{(4R)-1-[(1R,2R)-2-(2′,6′-difluoro[1,1′-biphenyl]-2-yl)cyclopropane-1-carbonyl]-4-methylazepan-4-yl}methanesulfonamide and N-{(4S)-1-[(1R,2R)-2-(2′,6′-difluoro[1,1′-biphenyl]-2-yl)cyclopropane-1-carbonyl]-4-methylazepan-4-yl}methanesulfonamide] | 97
CS(=O)(=O)N[C@H]1CCN(C(=O)C2C(c3ccccc3-c3c(F)cccc3F)C2(F)F)C1 (mixture of isomers) [Example 320, a mixture of N-{(3S)-1-[(1R,2R)-2-(2′,6′-difluoro[1,1′-biphenyl]-2-yl)-2,2-difluorocyclopropane-1-carbonyl]pyrrolidin-3-yl}methanesulfonamide and N-{(3S)-1-[(1S,3S)-3-(2′,6′-difluoro[1,1′-biphenyl]-2-yl)-2,2-difluorocyclopropane-1-carbonyl]pyrrolidin-3-yl}methanesulfonamide] | 101
CC(O)[C@@H]1CN(C(=O)[C@@H]2C[C@@]2(F)c2ccccc2-c2c(F)cccc2F)[C@H]1CNS(C)(=O)=O (mixture of isomers) [Example 404, a mixture of N-{[(2R,3R)-1-[(1S,2S)-2-(2′,6′-difluoro[1,1′-biphenyl]-2-yl)-2-fluorocyclopropane-1-carbonyl]-3-[(1R)-1-hydroxyethyl]azetidin-2-yl]methyl}methanesulfonamide and N-{[(2R,3R)-1-[(1S,2S)-2-(2′,6′-difluoro[1,1′-biphenyl]-2-yl)-2-fluorocyclopropane-1-carbonyl]-3-[(1S)-1-hydroxyethyl]azetidin-2-yl]methyl}methanesulfonamide] | 95
